Target: T1, Bcl-2 protein (Recombinant Human Bcl-2 Protein) (Homo sapiens, UniProt P10415)
T1 construct: purchased Novus Biologicals NBP2-34889
Test: AS-MS evaluation of binding of the Example 4 mixture library (1200 compounds/well) to Bcl-2, ASMS ratio (%)
Outline: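 Recombinant human Bcl-2 at 20 μM final was exposed to a 1200-member compound pool (20 nM per compound) in pH 7.4 Tris-HCl buffer containing NaCl, Tween-20 and DTT. After 1 h at 23 °C, protein–ligand complexes passed SEC spin columns; LC/MS signals were compared with protein-free standard and blank samples to give ASMS ratio.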

[1] = replicate n = 1, mixture library, value belongs to the MS peak assigned to the compound
[2] = replicate n = 2, mixture library, value belongs to the MS peak assigned to the compound
[3] = AS-MS, Example 4 mixture library, Bcl-2, replicate n = 1
[4] = AS-MS, Example 4 mixture library, Bcl-2, replicate n = 2

T1 sequence (P10415 whole entry): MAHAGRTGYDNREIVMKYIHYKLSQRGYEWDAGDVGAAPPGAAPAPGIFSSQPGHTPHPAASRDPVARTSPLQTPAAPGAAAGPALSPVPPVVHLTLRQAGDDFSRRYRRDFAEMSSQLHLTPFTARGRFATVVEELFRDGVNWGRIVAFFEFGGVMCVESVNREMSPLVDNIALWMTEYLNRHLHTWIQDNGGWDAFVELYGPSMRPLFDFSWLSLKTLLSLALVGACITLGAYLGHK

Row | SMILES | ASMS ratio (%) n = 1 [1] | ASMS ratio (%) n = 2 [2] | ASMS ratio (%) n = 1 [3] | ASMS ratio (%) n = 2 [4]
1 | CCOc1cccc(-c2ccccc2CN2CCN(c3ccc(C(=O)NS(=O)(=O)C(C)(C)C)nn3)CC2)c1 [Compound B2L071-01, N-tert-Butylsulfonyl-6-[4-[2-(3-ethoxyphenyl)phenyl]methyl]piperazin-1-yllpyridazine-3-carboxamide] | 1.2% | 0.0% |  | 
2 | CCOc1cncc(-c2ccccc2CN2CCN(c3ccc(C(=O)NS(=O)(=O)C(C)(C)C)nn3)CC2)c1 [Compound B2L072-01, N-tert-Butylsulfonyl-6-[4-[[2-(5-ethoxypyridin-3-yl)phenyl]methyl]piperazin-1-yl]pyridazine-3-carboxamide] | −10.7% | 8.3% |  | 
3 | CCOc1cccc(-c2ccc(CN3CCN(c4ccc(C(=O)NS(=O)(=O)C(C)(C)C)nn4)CC3)cc2C)c1 [Compound B2L073-01] | 0.0% | 0.0% |  | 
4 | CCOc1cncc(-c2ccc(CN3CCN(c4ccc(C(=O)NS(=O)(=O)C(C)(C)C)nn4)CC3)cc2C)c1 [Compound B2L074-01] | −1.0% | 1.4% |  | 
5 | CCOc1cccc(-c2ccc(CN3CCN(c4ccc(C(=O)NS(=O)(=O)C(C)(C)C)nn4)CC3)c(CC)c2)c1 [Compound B2L075-01] | 0.0% | 33.9% |  | 
6 | CCOc1cncc(-c2ccc(CN3CCN(c4ccc(C(=O)NS(=O)(=O)C(C)(C)C)nn4)CC3)c(CC)c2)c1 [Compound B2L076-01] | 1.8% | −0.3% |  | 
7 | CCOc1cccc(-c2ccc(CN3CCN(c4ccc(C(=O)NS(=O)(=O)C(C)(C)C)nn4)CC3)cc2F)c1 [Compound B2L077-01, N-tert-Butylsulfonyl-6-[4-[4-(3-ethoxyphenyl)-3-fluorophenyl]methyl]piperazin-1-yllpyridazine-3-carboxamide] | 0.0% | 0.0% |  | 
8 | CCOc1cncc(-c2ccc(CN3CCN(c4ccc(C(=O)NS(=O)(=O)C(C)(C)C)nn4)CC3)cc2F)c1 [Compound B2L078-01, N-tert-Butylsulfonyl-6-[4-[[4-(5-ethoxypyridin-3-yl)-3-fluorophenyl]methyl]piperazin-1-yl]pyridazine-3-carboxamide] | 1.1% | −0.7% |  | 
9 | CCOc1cccc(-c2ccc(CN3CCN(c4ccc(C(=O)NS(=O)(=O)C(C)(C)C)nn4)CC3)c(OC)c2)c1 [Compound B2L079-01] | 0.0% | 0.0% |  | 
10 | CCOc1cncc(-c2ccc(CN3CCN(c4ccc(C(=O)NS(=O)(=O)C(C)(C)C)nn4)CC3)c(OC)c2)c1 [Compound B2L080-01] | 0.0% | 0.0% |  | 
11 | CCOc1cccc(-c2cc(CN3CCN(c4ccc(C(=O)NS(=O)(=O)C(C)(C)C)nn4)CC3)cc(OCC)c2)c1 [Compound B2L081-01, N-tert-Butylsulfonyl-6-[4-[3-ethoxy-5-(3-ethoxyphenyl)phenyl]methyl]piperazin-1-yllpyridazine-3-carboxamide] |  |  | 0.0% | 0.0%
12 | CCOc1cncc(-c2cc(CN3CCN(c4ccc(C(=O)NS(=O)(=O)C(C)(C)C)nn4)CC3)cc(OCC)c2)c1 [Compound B2L082-01] |  |  | 2.6% | −1.2%
13 | CCOc1cccc(-c2cc(CN3CCN(c4ccc(C(=O)NS(=O)(=O)C(C)(C)C)nn4)CC3)cc(OC(C)C)c2)c1 [Compound B2L083-01] |  |  | 0.0% | 0.0%
14 | CCOc1cncc(-c2cc(CN3CCN(c4ccc(C(=O)NS(=O)(=O)C(C)(C)C)nn4)CC3)cc(OC(C)C)c2)c1 [Compound B2L084-01, N-tert-Butylsulfonyl-6-[4-[3-(5-ethoxypyridin-3-yl)-5-propan-2-yloxyphenylmethyl]piperazin-1-yl]pyridazine-3-carboxamide] |  |  | −3.0% | −1.9%
15 | CCOc1cccc(-c2cc(OC)c(CN3CCN(c4ccc(C(=O)NS(=O)(=O)C(C)(C)C)nn4)CC3)c(OC)c2)c1 [Compound B2L085-01, N-tert-Butylsulfonyl-6-[4-[[4-(3-ethoxyphenyl)-2,6-dimethoxyphenyl]methyl]piperazin-1-yl]pyridazine-3-carboxamide] |  |  | 0.0% | 0.0%
16 | CCOc1cncc(-c2cc(OC)c(CN3CCN(c4ccc(C(=O)NS(=O)(=O)C(C)(C)C)nn4)CC3)c(OC)c2)c1 [Compound B2L086-01] |  |  |  | 0.0%
17 | CCOc1cccc(-c2cc(CN3CCN(c4ccc(C(=O)NS(=O)(=O)C(C)(C)C)nn4)CC3)cc(C(F)(F)F)c2)c1 [Compound B2L087-01, N-tert-Butylsulfonyl-6-[4-[[3-(3-ethoxyphenyl)-5-(trifluoromethyl)phenyl]methyl]piperazin-1-yl]pyridazine-3-carboxamide] |  |  | 1.9% | −24.6%
18 | CCOc1cncc(-c2cc(CN3CCN(c4ccc(C(=O)NS(=O)(=O)C(C)(C)C)nn4)CC3)cc(C(F)(F)F)c2)c1 [Compound B2L088-01] |  |  | 0.0% | 2.8%
19 | CCOc1cccc(-c2cc(CN3CCN(c4ccc(C(=O)NS(=O)(=O)C(C)(C)C)nn4)CC3)cc(OC(F)(F)F)c2)c1 [Compound B2L089-01, N-tert-Butylsulfonyl-6-[4-[[3-(3-ethoxyphenyl)-5-(trifluoromethoxy)phenyl]methyl]piperazin-1-yl]pyridazine-3-carboxamide] |  |  | 0.0% | 0.0%
20 | CCOc1cncc(-c2cc(CN3CCN(c4ccc(C(=O)NS(=O)(=O)C(C)(C)C)nn4)CC3)cc(OC(F)(F)F)c2)c1 [Compound B2L090-01] |  |  | 0.0% | 0.0%
21 | CCOc1cccc(-c2ccc(CN3CCN(c4ccc(C(=O)NS(=O)(=O)C(C)(C)C)nn4)CC3)c3ccccc23)c1 [Compound B2L091-01] |  |  | 0.0% | 0.0%
22 | CCOc1cncc(-c2ccc(CN3CCN(c4ccc(C(=O)NS(=O)(=O)C(C)(C)C)nn4)CC3)c3ccccc23)c1 [Compound B2L092-01, N-tert-Butylsulfonyl-6-[4-[[4-(5-ethoxypyridin-3-yl)naphthalen-1-yl]methyl]piperazin-1-yl]pyridazine-3-carboxamide] |  |  | 5.5% | 7.8%
23 | CCOc1cccc(-c2csc(CN3CCN(c4ccc(C(=O)NS(=O)(=O)C(C)(C)C)nn4)CC3)c2)c1 [Compound B2L093-01] |  |  |  | 0.0%
24 | CCOc1cncc(-c2csc(CN3CCN(c4ccc(C(=O)NS(=O)(=O)C(C)(C)C)nn4)CC3)c2)c1 [Compound B2L094-01, N-tert-Butylsulfonyl-6-[4-[[4-(5-ethoxypyridin-3-yl)thiophen-2-yl]methyl]piperazin-1-yl]pyridazine-3-carboxamide] |  |  | 0.2% | 1.8%
25 | CCOc1cccc(C#Cc2ccccc2CN2CCN(c3ccc(C(=O)NS(=O)(=O)C(C)(C)C)nn3)CC2)c1 [Compound B2L095-01] |  |  | 0.0% | 0.0%
26 | CCOc1cncc(C#Cc2ccccc2CN2CCN(c3ccc(C(=O)NS(=O)(=O)C(C)(C)C)nn3)CC2)c1 [Compound B2L096-01] |  |  | 0.0% | 0.0%
27 | CCOc1cccc(-c2ccc(C(C)N3CCN(c4ccc(C(=O)NS(=O)(=O)C(C)(C)C)cc4)CC3)cc2)c1 (stereo not drawn) [Compound B2L097-01, N-tert-Butylsulfonyl-4-[4-[1-[4-(3-ethoxyphenyl)phenyl]ethyl]piperazin-1-yl]benzamide] |  |  | 0.0% | 0.0%
28 | CCOc1cncc(-c2ccc(C(C)N3CCN(c4ccc(C(=O)NS(=O)(=O)C(C)(C)C)cc4)CC3)cc2)c1 (stereo not drawn) [Compound B2L098-01, N-tert-Butylsulfonyl-4-[4-[1-[4-(5-ethoxypyridin-3-yl)phenyl]ethyl]piperazin-1-yl]benzamide] |  |  | 3.9% | −5.0%
29 | CCOc1cncc(-c2ccc(C(C)N3CCN(c4ccc(C(=O)NS(=O)(=O)C(C)(C)C)cc4)CC3)c(F)c2)c1 (stereo not drawn) [Compound B2L100-01, N-tert-Butylsulfonyl-4-[4-[1-[4-(5-ethoxypyridin-3-yl)-2-fluorophenyl]ethyl]piperazin-1-yl]benzamide] |  |  | 0.0% | 0.0%
30 | CCOc1cccc(-c2csc(C(=O)N3CCN(c4ccc(C(=O)NS(=O)(=O)CCC(F)(F)F)nn4)CC3)c2)c1 [Compound B2N001-01, 6-[4-[4-(3-Ethoxyphenyl)thiophene-2-carbonyl]piperazin-1-yl]-N-(3,3,3-trifluoropropylsulfonyl)pyridazine-3-carboxamide] |  |  |  | 0.0%

Source: patent US20250154686A1, “COMPOUND LIBRARY” (CHUGAI SEIYAKU KABUSHIKI KAISHA, priority 2021, published 2025)
